Experimental findings from ChEMBL document CHEMBL5614375, “PepExplainer: An explainable deep learning model for selection-based macrocyclic peptide bioactivity prediction and optimization” (Eur J Med Chem, 2024) are described below.

As a reminder, the IC50 is the concentration needed to halve the response being measured. A higher IC50 goes with weaker potency in that assay.

Bridge positions count the residues as written; N and C are the ends. Peptide text beside a SMILES is read from it.

For this assay, the target named is T1, IL17-RE-IL-17C (Homo sapiens, UniProt Q8NFR9+Q9P0M4).
T1 sequence (Q9P0M4 whole entry): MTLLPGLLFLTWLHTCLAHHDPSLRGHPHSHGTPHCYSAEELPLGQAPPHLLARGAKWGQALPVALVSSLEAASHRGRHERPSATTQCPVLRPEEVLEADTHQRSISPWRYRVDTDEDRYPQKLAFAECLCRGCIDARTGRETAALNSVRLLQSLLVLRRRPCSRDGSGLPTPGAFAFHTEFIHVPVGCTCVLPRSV
T1 sequence (Q8NFR9 whole entry): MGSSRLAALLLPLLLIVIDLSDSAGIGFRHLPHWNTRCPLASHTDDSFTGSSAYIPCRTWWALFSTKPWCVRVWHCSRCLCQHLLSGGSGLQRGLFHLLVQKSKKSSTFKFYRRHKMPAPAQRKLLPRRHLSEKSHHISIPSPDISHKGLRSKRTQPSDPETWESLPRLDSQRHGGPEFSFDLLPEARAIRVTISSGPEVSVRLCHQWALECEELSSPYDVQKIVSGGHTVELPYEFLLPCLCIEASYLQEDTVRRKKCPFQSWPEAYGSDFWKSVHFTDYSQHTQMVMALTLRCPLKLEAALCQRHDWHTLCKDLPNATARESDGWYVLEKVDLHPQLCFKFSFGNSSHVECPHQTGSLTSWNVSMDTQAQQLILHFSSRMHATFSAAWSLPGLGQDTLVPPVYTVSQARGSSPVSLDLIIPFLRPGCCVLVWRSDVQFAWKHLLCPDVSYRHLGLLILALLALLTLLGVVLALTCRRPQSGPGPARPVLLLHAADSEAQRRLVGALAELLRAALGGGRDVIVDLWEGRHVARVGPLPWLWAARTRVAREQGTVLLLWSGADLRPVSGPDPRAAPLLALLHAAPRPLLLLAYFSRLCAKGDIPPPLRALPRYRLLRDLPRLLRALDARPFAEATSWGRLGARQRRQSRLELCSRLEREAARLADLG
In words: Inhibition of interleukin-17RE/biotinylated IL-17C protein-protein interaction (unknown origin) incubated for 1 hrs by competitive ELISA. The format is protein-complex assay. (ELISA stands for enzyme-linked immunosorbent assay.)
`CC[C@H](C)[C@@H]1NC(=O)[C@H](CCCNC(=N)N)NC(=O)[C@H](Cc2ccc(O)cc2)NC(=O)[C@H](Cc2ccc(O)cc2)NC(=O)[C@H](Cc2c[nH]cn2)NC(=O)[C@H](Cc2c[nH]cn2)NC(=O)[C@H](Cc2ccc(O)cc2)NC(=O)CSC[C@@H](C(=O)NCC(N)=O)NC(=O)CNC(=O)[C@H](CC(C)C)NC(=O)[C@H](CC(=O)O)NC(=O)CNC(=O)[C@H](Cc2ccc(O)cc2)NC(=O)[C@H](CC(C)C)NC1=O` ({CH2CO}-YHHYYRILYGDLGCG-NH2; thioether N-14) showed a concentration for half-maximal inhibition (IC50) of 83 nM.

Take `CC[C@H](C)[C@@H]1NC(=O)[C@H](CCCNC(=N)N)NC(=O)[C@H](Cc2ccc(O)cc2)NC(=O)[C@H](Cc2ccc(O)cc2)NC(=O)[C@H](CCC(=O)O)NC(=O)[C@H](Cc2c[nH]cn2)NC(=O)[C@H](Cc2ccc(O)cc2)NC(=O)CSC[C@@H](C(=O)NCC(N)=O)NC(=O)CNC(=O)[C@H](CC(C)C)NC(=O)[C@H](CCC(=O)O)NC(=O)CNC(=O)[C@H](Cc2ccc(O)cc2)NC(=O)[C@H](CC(C)C)NC1=O` ({CH2CO}-YHEYYRILYGELGCG-NH2; thioether N-14): the IC50 stood at 86 nM. This IC50 and that of the compound before are within 1.5-fold of each other.

The compound `CC[C@H](C)[C@@H]1NC(=O)[C@H](CCCNC(=N)N)NC(=O)[C@H](Cc2ccc(O)cc2)NC(=O)[C@H](Cc2ccc(O)cc2)NC(=O)[C@H](Cc2c[nH]cn2)NC(=O)[C@H](Cc2c[nH]cn2)NC(=O)[C@H](Cc2ccc(O)cc2)NC(=O)CSC[C@@H](C(=O)NCC(N)=O)NC(=O)CNC(=O)[C@H](CC(C)C)NC(=O)[C@H](CCC(=O)O)NC(=O)CNC(=O)[C@H](Cc2ccc(O)cc2)NC(=O)[C@H](Cc2ccccc2)NC1=O` ({CH2CO}-YHHYYRIFYGELGCG-NH2; thioether N-14) displayed an IC50 of 23300 nM.

`CC[C@H](C)[C@@H]1NC(=O)[C@H](CCCNC(=N)N)NC(=O)[C@H](Cc2ccc(O)cc2)NC(=O)[C@H](Cc2ccc(O)cc2)NC(=O)[C@H](CCC(N)=O)NC(=O)[C@H](Cc2c[nH]cn2)NC(=O)[C@H](Cc2ccc(O)cc2)NC(=O)CSC[C@@H](C(=O)NCC(N)=O)NC(=O)[C@H](C(C)C)NC(=O)[C@H](CC(C)C)NC(=O)[C@H](CCC(=O)O)NC(=O)CNC(=O)[C@H](Cc2ccc(O)cc2)NC(=O)[C@H](CC(C)C)NC1=O` ({CH2CO}-YHQYYRILYGELVCG-NH2; thioether N-14) had an IC50 of more than 30000 nM.

On to `CC[C@H](C)[C@@H]1NC(=O)[C@H](CCCNC(=N)N)NC(=O)[C@H](Cc2ccc(O)cc2)NC(=O)[C@H](Cc2ccc(O)cc2)NC(=O)[C@H](Cc2ccc(O)cc2)NC(=O)[C@H](Cc2c[nH]cn2)NC(=O)[C@H](Cc2ccc(O)cc2)NC(=O)CSC[C@@H](C(=O)NCC(N)=O)NC(=O)CNC(=O)[C@H](CC(C)C)NC(=O)[C@H](CCC(=O)O)NC(=O)CNC(=O)[C@H](Cc2ccc(O)cc2)NC(=O)[C@H](CC(C)C)NC1=O` ({CH2CO}-YHYYYRILYGELGCG-NH2; thioether N-14), for which the IC50 worked out at 119 nM.

`CC[C@H](C)[C@@H]1NC(=O)[C@H](CCCNC(=N)N)NC(=O)[C@H](Cc2ccc(O)cc2)NC(=O)[C@H](Cc2ccc(O)cc2)NC(=O)[C@H](CCCCN)NC(=O)[C@H](Cc2c[nH]cn2)NC(=O)[C@H](Cc2ccc(O)cc2)NC(=O)CSC[C@@H](C(=O)NCC(N)=O)NC(=O)CNC(=O)[C@H](CC(C)C)NC(=O)[C@H](CCC(=O)O)NC(=O)CNC(=O)[C@H](Cc2ccc(O)cc2)NC(=O)[C@H](CC(C)C)NC1=O` ({CH2CO}-YHKYYRILYGELGCG-NH2; thioether N-14) gave an IC50 of 89 nM. This IC50 and that of the compound before are within 1.5-fold of each other.

The compound `CC[C@H](C)[C@@H]1NC(=O)[C@H](CCCNC(=N)N)NC(=O)[C@H](Cc2ccc(O)cc2)NC(=O)[C@H](Cc2ccc(O)cc2)NC(=O)[C@H](CCCNC(=N)N)NC(=O)[C@H](Cc2c[nH]cn2)NC(=O)[C@H](Cc2ccc(O)cc2)NC(=O)CSC[C@@H](C(=O)NCC(N)=O)NC(=O)CNC(=O)[C@H](CC(C)C)NC(=O)[C@H](CCC(=O)O)NC(=O)CNC(=O)[C@H](Cc2ccc(O)cc2)NC(=O)[C@H](CC(C)C)NC1=O` ({CH2CO}-YHRYYRILYGELGCG-NH2; thioether N-14) showed a concentration for half-maximal inhibition (IC50) of 108 nM.
